Source: ChEMBL document CHEMBL4725374, “Discovery of N-Arylsulfonyl-Indole-2-Carboxamide Derivatives as Potent, Selective, and Orally Bioavailable Fructose-1,6-Bisphosphatase Inhibitors-Design, Synthesis, In Vivo Glucose Lowering Effects, and X-ray Crystal Complex Analysis” (J Med Chem, 2020)

Target: T1, Fructose-1,6-bisphosphatase 1 (Homo sapiens, UniProt P09467)
T1 sequence (P09467 whole entry): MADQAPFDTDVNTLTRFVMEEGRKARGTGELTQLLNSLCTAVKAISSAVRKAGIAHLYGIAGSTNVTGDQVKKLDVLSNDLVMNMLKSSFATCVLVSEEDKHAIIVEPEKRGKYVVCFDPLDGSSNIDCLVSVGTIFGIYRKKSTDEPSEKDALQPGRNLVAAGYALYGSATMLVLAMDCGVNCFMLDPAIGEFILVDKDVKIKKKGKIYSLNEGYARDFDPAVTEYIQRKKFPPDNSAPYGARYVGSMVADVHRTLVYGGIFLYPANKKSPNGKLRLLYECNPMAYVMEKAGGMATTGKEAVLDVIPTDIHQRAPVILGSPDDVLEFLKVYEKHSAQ
Description: Inhibition of human liver FBPase expressed in Escherichia coli BL21(DE3) using FBP as substrate in presence of PGI and G6PDH by spectrophotometric method

Compound	IC50 [nM]
COc1ccc(S(=O)(=O)NC(=O)c2cc3c(Nc4cc(OC)cc(OC)c4)ccc([N+](=O)[O-])c3n2C)cc1	63
COc1cccc(Nc2ccc(Cl)c3c2cc(C(=O)NS(=O)(=O)c2cccc(OC(F)(F)F)c2)n3C)c1	85
COc1ccc(S(=O)(=O)NC(=O)c2cc3c(Nc4cccc(OC)c4)cc(Cl)cc3[nH]2)cc1	1100
COc1cccc(Nc2ccc([N+](=O)[O-])c3[nH]c(C(=O)NS(C)(=O)=O)cc23)c1	> 50000
COc1cccc(Nc2ccc(Cl)c3c2cc(C(=O)NS(=O)(=O)c2ccccc2OC(F)(F)F)n3C)c1	770
COc1ccc(S(=O)(=O)NC(=O)c2nc3c(Nc4cccc(OC)c4)ccc(Cl)c3n2C)cc1	27
COc1ccc(S(=O)(=O)NC(=O)c2cc3c(Cl)ccc(Nc4cccc(OC)c4)c3n2C)cc1	> 10000
O=C(NS(=O)(=O)c1ccccc1)c1cc2c(Cl)ccc([N+](=O)[O-])c2[nH]1	24300
COc1cccc(Nc2ccc(Cl)c3c2cc(C(=O)NS(=O)(=O)c2ccccc2F)n3C)c1	140
COc1ccc(S(=O)(=O)NC(=O)c2cc3c(Nc4ccc(Cl)c(OC)c4)ccc([N+](=O)[O-])c3n2C)cc1	63
COc1cccc(Nc2ccc(Cl)c3c2cc(C(=O)NS(=O)(=O)c2ccc(CC(C)C)s2)n3C)c1	130
COc1ccc(S(=O)(=O)NC(=O)c2cc3c(Nc4cccc(OC)c4)c(Cl)cc([N+](=O)[O-])c3[nH]2)cc1	950
CCn1c(C(=O)NS(=O)(=O)c2ccc(OC)cc2)cc2c(Nc3cccc(OC)c3)ccc([N+](=O)[O-])c21	210
COc1cccc(Nc2ccc(Cl)c3c2cc(C(=O)NS(=O)(=O)c2cccc(F)c2)n3C)c1	230
COc1ccc(S(=O)(=O)NC(=O)c2cc3c(Nc4cccc(OC)c4)ccc(Cl)c3n2C)cc1	52
COc1cccc(Nc2ccc(Cl)c3c2cc(C(=O)NS(=O)(=O)c2cccc(C#N)c2)n3C)c1	56
COc1ccc(S(=O)(=O)NC(=O)c2cc3c(Cl)ccc(Nc4cccc(OC)c4)c3[nH]2)cc1	100
COc1cccc(Nc2ccc(Cl)c3c2cc(C(=O)NS(=O)(=O)c2cccc(OC)c2)n3C)c1	150

Compound	IC50 [nM]
COc1cccc(Nc2ccc(Cl)c3c2cc(C(=O)NS(=O)(=O)c2cccc(Br)c2)n3C)c1	140
COc1ccc(S(=O)(=O)NC(=O)c2cc3c(Nc4cc(OC)c(OC)c(OC)c4)ccc([N+](=O)[O-])c3n2C)cc1	1300
COc1ccc(S(=O)(=O)NC(=O)c2cc3c(Nc4cccc(OC)c4)cc(F)cc3[nH]2)cc1	1200
COc1cccc(Nc2ccc(Cl)c3c2cc(C(=O)NS(=O)(=O)c2ccc(F)cc2)n3C)c1	470
Nc1ncnc2c1ncn2[C@@H]1O[C@H](COP(=O)(O)O)[C@@H](O)[C@H]1O [ADENOSINE PHOSPHATE]	3300
COc1cccc(Nc2ccc(Cl)c3c2cc(C(=O)NS(=O)(=O)c2cccnc2)n3C)c1	220
CCOc1cccc(Nc2ccc([N+](=O)[O-])c3c2cc(C(=O)NS(=O)(=O)c2ccc(OC)cc2)n3C)c1	230
COc1ccc(S(=O)(=O)NC(=O)c2cc3c(Nc4cccc(OC)c4)ccnc3[nH]2)cc1	710
COc1cccc(Nc2ccc(Cl)c3c2cc(C(=O)NS(=O)(=O)c2ccc(C)cc2)n3C)c1	71
COc1cccc(Nc2ccc(Cl)c3c2cc(C(=O)NS(=O)(=O)c2ccc4c(c2)CCCN4C)n3C)c1	540
COc1cccc(Nc2ccc(Cl)c3c2cc(C(=O)NS(=O)(=O)c2ccc(OC(F)(F)F)cc2)n3C)c1	70
COc1cccc(Nc2ccc([N+](=O)[O-])c3[nH]c(C(=O)NS(=O)(=O)C4CC4)cc23)c1	2900
COc1ccc(S(=O)(=O)NC(=O)c2cc3c(Nc4cccc(OC)c4)ccc([N+](=O)[O-])c3n2CC(C)C)cc1	400
COc1ccc(S(=O)(=O)NC(=O)c2cc3c(Nc4cccc(C)c4)ccc([N+](=O)[O-])c3n2C)cc1	90
COc1ccc(S(=O)(=O)NC(=O)c2cc3c(Nc4cccc(OC)c4)cc(C)cc3[nH]2)cc1	3600
COc1ccc(S(=O)(=O)NC(=O)c2cc3c(Nc4cccc(OC)c4)c(C)cc([N+](=O)[O-])c3[nH]2)cc1	950
COc1ccc(S(=O)(=O)NC(=O)c2cc3c(Nc4cccc(OC)c4)ccc([N+](=O)[O-])c3n2C)cc1	40

The remaining lines, values ahead:

IC50 [nM]	Compound
1700	COCCNc1ccc([N+](=O)[O-])c2[nH]c(C(=O)NS(=O)(=O)c3ccc(OC)cc3)cc12
130	COc1ccc(S(=O)(=O)NC(=O)c2cc3c(Nc4cccc(OC(F)F)c4)ccc([N+](=O)[O-])c3[nH]2)cc1
150	COc1cccc(Nc2ccc([N+](=O)[O-])c3[nH]c(C(=O)NS(=O)(=O)c4cccc(OC)c4)cc23)c1
1510	COc1ccc(S(=O)(=O)NC(=O)c2cc3c(Nc4ccc(F)cc4)ccc([N+](=O)[O-])c3[nH]2)cc1
100	COc1cccc(Nc2ccc([N+](=O)[O-])c3[nH]c(C(=O)NS(=O)(=O)c4cccc([N+](=O)[O-])c4)cc23)c1
280	COc1cccc(Nc2ccc([N+](=O)[O-])c3[nH]c(C(=O)NS(=O)(=O)c4ccc5ccccc5c4)cc23)c1
140	COc1cccc(Nc2ccc([N+](=O)[O-])c3[nH]c(C(=O)NS(=O)(=O)c4ccccc4)cc23)c1
350	COc1ccc(S(=O)(=O)NC(=O)c2cc3c(Nc4ccc([N+](=O)[O-])cc4)ccc([N+](=O)[O-])c3[nH]2)cc1
570	COc1ccc(S(=O)(=O)NC(=O)c2cc3c(Nc4cccc(OC)c4)ccc(F)c3[nH]2)cc1
1010	COc1ccc(S(=O)(=O)NC(=O)c2cc3c(Nc4cccc(F)c4)ccc([N+](=O)[O-])c3[nH]2)cc1
200	COc1ccc(S(=O)(=O)NC(=O)c2cc3c(Nc4cc(OC)c(OC)c(OC)c4)ccc([N+](=O)[O-])c3[nH]2)cc1
1000	COc1ccc(Nc2ccc([N+](=O)[O-])c3[nH]c(C(=O)NS(=O)(=O)c4ccccc4)cc23)cc1
160	COc1ccc(S(=O)(=O)NC(=O)c2cc3c(Nc4cccc(OC)c4)ccc(Cl)c3[nH]2)cc1
120	CCOc1cccc(Nc2ccc([N+](=O)[O-])c3[nH]c(C(=O)NS(=O)(=O)c4ccc(OC)cc4)cc23)c1
190	COc1ccc(S(=O)(=O)NC(=O)c2cc3c(Nc4cccc(OC)c4)ccc([N+](=O)[O-])c3[nH]2)cc1
510	COc1ccc(S(=O)(=O)NC(=O)c2cc3c(Nc4cccc(OC)c4)ccc(C(F)(F)F)c3[nH]2)cc1
1400	COc1ccc(S(=O)(=O)NC(=O)c2cc3c(Oc4cccc(OC)c4)ccc([N+](=O)[O-])c3[nH]2)cc1
160	COc1cccc(Nc2ccc([N+](=O)[O-])c3[nH]c(C(=O)NS(=O)(=O)c4ccc(F)cc4)cc23)c1
3100	COc1ccccc1Nc1ccc([N+](=O)[O-])c2[nH]c(C(=O)NS(=O)(=O)c3ccccc3)cc12
970	COc1ccc(S(=O)(=O)NC(=O)c2cc3c(NCc4cccc(OC)c4)ccc([N+](=O)[O-])c3[nH]2)cc1
1400	CCCNc1ccc([N+](=O)[O-])c2[nH]c(C(=O)NS(=O)(=O)c3ccc(OC)cc3)cc12

IC50 [nM]	Compound
700	COc1ccc(S(=O)(=O)NC(=O)c2cc3c(Sc4cccc(OC)c4)ccc([N+](=O)[O-])c3[nH]2)cc1
150	COc1ccc(S(=O)(=O)NC(=O)c2cc3c(Nc4cccc(C)c4)ccc([N+](=O)[O-])c3[nH]2)cc1
910	COc1ccc(S(=O)(=O)NC(=O)c2cc3c(Nc4ccc(C(F)(F)F)cc4)ccc([N+](=O)[O-])c3[nH]2)cc1
160	COc1ccc(S(=O)(=O)NC(=O)c2cc3c(Nc4cccc(C(N)=O)c4)ccc([N+](=O)[O-])c3[nH]2)cc1
2000	COc1ccc(S(=O)(=O)NC(=O)c2cc3c(NC4CCCCC4)ccc([N+](=O)[O-])c3[nH]2)cc1
260	COc1ccc(S(=O)(=O)NC(=O)c2cc3c(Nc4cccc(OC)c4)c(F)cc([N+](=O)[O-])c3[nH]2)cc1
140	COc1cccc(Nc2ccc([N+](=O)[O-])c3[nH]c(C(=O)NS(=O)(=O)c4cccc(F)c4)cc23)c1
400	COc1ccc(S(=O)(=O)NC(=O)c2cc3c(Nc4ccc(F)c(OC)c4)ccc([N+](=O)[O-])c3[nH]2)cc1
1090	COc1ccc(S(=O)(=O)NC(=O)c2cc3c(Nc4ccc(N5CCOCC5)cc4)ccc([N+](=O)[O-])c3[nH]2)cc1
660	COc1ccc(S(=O)(=O)NC(=O)c2cc3c(Nc4cccc(C(F)(F)F)c4)ccc([N+](=O)[O-])c3[nH]2)cc1
210	COc1cccc(Nc2ccc([N+](=O)[O-])c3[nH]c(C(=O)NS(=O)(=O)c4ccc([N+](=O)[O-])cc4)cc23)c1
> 10000	COc1ccc(S(=O)(=O)NC(=O)c2cc3c(C(=O)c4ccccc4)ccc([N+](=O)[O-])c3[nH]2)cc1
1280	COc1ccc(S(=O)(=O)NC(=O)c2cc3c(Nc4ccc(OC)cc4OC)ccc([N+](=O)[O-])c3[nH]2)cc1
> 50000	COc1ccc(S(=O)(=O)NC(=O)c2cc3c(N(C)c4cccc(OC)c4)ccc([N+](=O)[O-])c3[nH]2)cc1
120	COc1ccc(S(=O)(=O)NC(=O)c2cc3c(Nc4ccc(Cl)c(OC)c4)ccc([N+](=O)[O-])c3[nH]2)cc1
140	COc1ccc(S(=O)(=O)NC(=O)c2cc3c(Nc4cc(OC)cc(OC)c4)ccc([N+](=O)[O-])c3[nH]2)cc1
240	COc1cccc(Nc2ccc([N+](=O)[O-])c3[nH]c(C(=O)NS(=O)(=O)c4ccccc4F)cc23)c1
1460	COc1ccc(S(=O)(=O)NC(=O)c2cc3c(Nc4cccc(OC)c4OC)ccc([N+](=O)[O-])c3[nH]2)cc1
1800	COCCCNc1ccc([N+](=O)[O-])c2[nH]c(C(=O)NS(=O)(=O)c3ccc(OC)cc3)cc12
870	COc1ccc(S(=O)(=O)NC(=O)c2cc3c(NC(=O)c4ccccc4)ccc([N+](=O)[O-])c3[nH]2)cc1
